For test [1], the system named is MRGPRB4+ fibres. Nature of the test: Two-photon in vivo calcium imaging (GCaMP3.0) of central afferent fibres through a spinal cord laminectomy, chemical stimuli. More on the design: species or system mouse. Here is the method: (§1) Mice expressing reporters and/or Cre recombinase targeted to the MrgprB4 locus were generated by homologous recombination in embryonic stem cells, according to standard procedures. Heterozygous neonates from MrgprD-Cre and MrgprB4-Cre mice were injected intraperitoneally with Cre-dependent AAV8 viruses expressing GCaMP3.0 or mGCaMP3.0 or hM3(Gq-coupled) DREADD, and imaged as adults (≧8 weeks old).
(§2) Electrophysiology experiments on ex vivo skin-nerve preparations from adult heterozygous Mrgprb4-EGFPf reporter mice were performed as described in Woodbury, et al. J. Comp. Neurol. 436, 304-323 (2001). For calcium imaging, after a dorsal laminectomy the spinal column was stabilized and filled with imaging solution (see below for details). Imaging was performed using a two-photon laser-scanning microscope (Ultima, Prairie Inc.) using an Olympus 40×0.8 N.A. water immersion objective, at 128×128 pixel resolution with an acquisition rate of 8-12 frames per second. Mechanical stimuli were delivered using a custom-modified No. 5 sable paint brush or serrated forceps, in a manner electronically time-stamped to image acquisition, as may be seen in FIGS. 18A-18C and further discussed below. Stimuli were delivered to each mouse in a series of trials, separated by a few minutes; each trial consisted of one or more stimuli delivered typically at intervals of several seconds. Chemical stimuli were delivered to the spinal cord using a Pipetman pipette and to the periphery using a syringe pump. Calcium responses were analysed using custom software written in Matlab (see below for more details). For calculating ΔF/F [(Fav−F0)/F0], F0 is the average of the first ten frames of the recording period.
(§3) Mice 2 months or older were sedated by i.p. injection of a mix of ketamine (100 mg/kg), xylazine (15 mg/kg), acepromazine (2.5 mg/kg in 0.9% NaCl). During surgery, body temperature was maintained at 37° C. with a heating blanket.
(§4) A dorsal laminectomy was performed mostly at spinal level L2-L4 (but occasionally at L1-L3) as described in Johannssen, et al. J. Physiol. (Lond.) 588:3397-3402 (2010), but without removing the dura. The spinal column was stabilized using Narishige STS-A spinal clamps. In addition a head-holding adaptor from Kopf (923-B Mouse Gas Anaesthesia Head Holder) was used that has installed an anaesthesia/gas mask for positioning the mouse head. In this apparatus the gas is applied through a standard hose barb positioned above the nose on the mask. The inlet fills a large gas chamber around the snout, a second hose barb below the mask is provided for vacuuming off excess, expelled gasses. The animals were maintained under continuous anaesthesia for the duration of the imaging experiments with 1-2% isofluorane or with hourly injections of the above ketamine mix. A well was built around the exposed spinal cord using Gelseal (Amersham Biosciences Corp) and Kwik Sil Adhesive (WPI). Warm imaging solution (in mM: 130 NaCl, 3 KCl, 2.5 CaCl2, 0.6 6H2O.MgCl2, 10 HEPES without Na, 1.2 NaHCO3, 10 glucose, pH7.45 with NaOH) (37° C.) was repeatedly applied to prevent drying and maintain tissue integrity, and to allow the use of immersion objectives. During imaging the body temperature of the animals was maintained at 37° C. with a heating blanket and an air-therm heater (WPI) placed inside the microscope area.
(§5) Imaging experiments were performed under a two-photon laser-scanning microscope (Ultima, Prairie Instruments Inc.). Live images were acquired at 8-12 frames per second, at depths below the pia ranging from 100 to 250 μm, using an Olympus 40×0.8 N.A. water immersion objective, at 128×128 pixel resolution with a laser tuned to 940 nm wavelength, and emission filters 525/50 nm and 595/50 nm for green and red fluorescence, respectively. Laser power was adjusted to be 20-25 mW at the focal plane (maximally 35 mW), depending on the imaging depth and level of expression of GCaMP3.0. […]

Test [2] deals with MRGPRD+ fibres. The test is described as above. More on the design: species or system mouse. As to the method:
as §1, §2, §3, §4, §5

Test [3] relates to MRGPRB4+ neurons engineered to express TRPV1. As to the kind of experiment: Calcium imaging after peripheral injection of capsaicin in MrgprB4-Cre; Rosa26-loxP-STOP-loxP-TrpV1 mice. Type of test: in vivo, mouse. As to conditions: adult MrgprB4-Cre, peripheral injection (10 μl of 1 mM). Here is the method: α,β-methyl ATP (10 μl from 1 mM solution) and capsaicin (10 μl from 1 mM solution (10% DMSO in saline)) was injected in the ventral and dorsal hindpaw of MrgprD and MrgprB4 mice, respectively, using a syringe pump (WPI, Inc., sp200i syringe pump). The timing of the injection was controlled by the two-photon image acquisition system and associated software (Prairie View and Trigger Sync, Prairie Technologies) to link it with image acquisition.
In the case of chemical stimulation (delivered either to the spinal cord or to the periphery), typically a single trial was performed for a given mouse, due to the difficulty of maintaining the same focal plane during the period of application of the chemical to the spinal cord or the period required for diffusion of the liquid bolus delivered for peripheral injection, respectively. In these cases, therefore, the MPI ΔF/Fpeak before and during the stimulation period were calculated for multiple mice imaged using ROIs of similar size, and were compared for statistical significance (relative to pre-stimulus baseline) by repeated measures ANOVA, followed by Bonferroni-corrected post-hoc comparison of means (unless stated otherwise). The ΔF/F values in FIGS. 11B and 11E were corrected for photobleaching as described in Berry, et al. Neuron 74:530-542 (2012). […]

[4] abbreviates: direct application to the spinal cord, KCl 60 mM, n=3.
The mark [5] stands for this setting: injection into the dorsal (hairy) skin of the hindpaw (10 μl of 1 mM), n=3.
[6] abbreviates: injection into the glabrous skin of the hind paw (10 μl of 1 mM), n=3.
[7] abbreviates: spinal application, 5 mM, mean ± range, n=2.

SMILES strings stand for the structures.

With `[Cl-].[K+]` [KCl], in test [1] (KCl, same field of view as the CNO test in GCaMP3.0-only mice), the “activation of fibres after application to the spinal cord (positive control)” value was “robust activation”. Further, the “mean latency to peak (MLP)” value in test [1] (setting [4]) was found to be 9.3 ± 4.15 s; in test [2] (setting [4]), 8.6 ± 3.6 s. For the same compound, the “mean percent increase in peak ΔF/F (MPI ΔF/Fpeak)” value in test [1] (setting [4]) is listed as 201.6±33.2%; in test [2] (direct application to the spinal cord, KCl 60 mM, mean ± s.e.m., n=3), 222±19%.
Take `COc1cc(CNC(=O)CCCC/C=C/C(C)C)ccc1O` [capsaicin]: the “calcium transients evoked by peripheral injection” value in test [3] is reported as “induced robust calcium transients”; in test [1] (control MrgprB4-Cre mice without TRPV1, peripheral injection), “no such signals were observed”.
As to `Nc1ncnc2c1ncn2[C@@H]1O[C@H](COP(=O)(O)CP(=O)(O)OP(=O)(O)O)[C@@H](O)[C@H]1O` [α,β Me-ATP, α,β-methylene (Me) ATP], the MLP in test [1] (setting [5]) was determined as 21.9 ± 12.6 s; in test [2] (setting [6]), 25.7 ± 10.5 s; in test [2] (setting [7]), 16.3±1.3. Also, the “MPI [ΔF/F]peak” value was 142±0.6% in test [1] (setting [5]), 137±51% in test [2] (setting [6]) and 249±54% in test [2] (setting [7]). Moreover, the “calcium transients evoked by peripheral injection” value in test [1] (mice expressing GCaMP3.0 but not TRPV1 in MrgprB4+ neurons, FIG. 8F) was “exhibit calcium transients”. The “calcium response after application to the spinal cord” value in test [2] (MrgD mice, FIG. 7E) is listed as “induced a strong calcium response”.

The values are drawn from US20140178305A1, “IDENTIFICATION AND USE OF ANXIOLYTIC COMPOUNDS” (CALIFORNIA INSTITUTE OF TECHNOLOGY, priority 2012, published 2014).
